From patent US20250339415A1, “DISULFIDE COMPOUNDS AS MEDICAMENTS” (CYTACOAT AB, priority 2021, published 2025)
Structures can show the parent of a compound that is named as a salt.

What was measured:
Assay type in all cases: cell-based
S. aureus = test: Combination therapy: Fradiomycin with PDEA, visible growth; settings: Fradiomycin 0 μg/ml
Protocol: (§1) Different concentrations of Fradiomycin in Mueller Hinton were prepared in 3 different concentrations of PDEA. E. coli and S. aureus were inoculated (10^5) and were incubated overnight. Readouts were “Clear” and “Foggy”.

E. coli = test: as above; settings: Fradiomycin 0 μg/ml
Protocol: as §1

[1] = test system: Staphylococcus aureus B5381; test: Minimum inhibitory concentration (MIC), visible growth
Protocol: (§2) • 1. Using a sterile inoculating loop, transfer bacteria/Candida albicans from frozen stock culture and streak them on a fresh LA plate. • 2. Incubate the plate at 37° C. overnight (o/n) (18-24 h).
(§3) • 1. Prepare bacterial culture by adding 20 ml Mueller Hinton broth (*) to a 250-ml Erlenmeyer flask with sidearm. • 2. Using a sterile inoculating loop, pick approximately 10 colonies from the o/n bacterial culture and transfer bacteria to the flask. • 3. Incubate the E-flask with bacteria on a rotating shaker at 37° C. until OD590=0.40. This OD should equal an approximate bacterial count of 1×10^8 cfu/ml (**) • This is measured using a colorimeter (or spectrophotometer). Set reference and press R (=reference) first, then measure the bacterial culture by pressing T (=test). • 4. At OD590 0.40, serially dilute the bacterial suspension 1:10 000 in Mueller Hinton broth to obtain a bacterial target concentration of 1×10^4 cfu/ml. Determine the initial inoculation by serially diluting 0.1 ml in 0.9 ml blanks of sterile PBS and plating 0.1 ml aliquots to LA plates, preferably. • 5. Different concentrations of the tested compound are prepared in 0.6-0.8 ml of the final dilution of bacterial suspension and placed in 2-ml test tubes. • 6. Incubate test tubes in an orbital shaker incubator at 37° C. for 24 h.
(§4) • 7. Analyze visible growth, i.e. “Foggy” or “Clear”. MIC is being defined as the interval between the highest “Foggy” and the lowest “Clear” concentration of the compound.
(§5) Different concentrations of PDEA (Example 1) in Mueller Hinton medium were prepared. Bacteria were inoculated to a concentration of 20 000 CFU/ml and incubated at 37° C. for 24 hours. Minimum inhibitory concentrations (MICs) were determined by analyzing visible growth, i.e., readouts were “Clear” and “Foggy”.
(§6) Different concentrations of the quaternary ammonium PDEA (Example 2) in Mueller Hinton medium were prepared. Bacteria were inoculated to a concentration of 20 000 CFU/ml and incubated at 37° C. for 24 hours. Minimum inhibitory concentrations (MICs) were determined by analyzing visible growth, i.e., readouts were “Clear” and “Foggy”.
(§7) Different concentrations of this compound in Mueller Hinton medium were prepared. Bacteria were inoculated to a concentration of 20 000 CFU/ml and incubated at 37° C. for 24 hours. Minimum inhibitory concentrations (MICs) were determined by analyzing visible growth, i.e., readouts were “Clear” and “Foggy”.
(§8) Different concentrations of this compound were prepared in Mueller Hinton broth. Bacteria were inoculated to a concentration of 20 000 CFU/ml and incubated at 37° C. for 24 hours. Minimum inhibitory concentrations (MICs) were determined by analyzing visible growth, i.e., readouts were “Clear” and “Foggy”.

[2] = test system: Klebsiella pneumoniae AO15200; test: as above
Protocol: as §2, §3, §4, §5, §6, §7, §8

[3] = test system: Pseudomonas aeruginosa PA02; test: as above
Protocol: as §2, §3, §4, §5, §6, §7, §8

Escherichia coli CFT073 = test: as above
Protocol: as §2, §3, §4, §5, §6, §7, §8

[4] = test system: Staphylococcus epidermidis Se19 (Clinical Isolate, Jan Ingemar Falk); test: as above
Protocol: as §2, §3, §4, §5, §6, §7, §8

[5] = test system: Enterococcus faecalis #28 (KI, Clinical Isolate); test: as above
Protocol: as §2, §3, §4, §5, §6, §7, §8

[6] = test system: Enterococcus faecium #11 (KI, Clinical Isolate); test: as above
Protocol: as §2, §3, §4, §5, §6, §7, §8

NCCSSc1ccccn1 [PDEA, 2-(Pyridyldithio)ethylamine (hydrochloride)]
50 to 100 µM: MIC ([2]; Klebsiella pneumoniae, AO15200, 24 h) | MIC (Escherichia coli CFT073; Escherichia coli, CFT073, 24 h)
Foggy: visible growth readout (S. aureus; PDEA 0.0125 mM) | visible growth readout (S. aureus; PDEA 0.025 mM) | visible growth readout (S. aureus; PDEA 0.05 mM) | visible growth readout (E. coli; PDEA 0.0125 mM) | visible growth readout (E. coli; PDEA 0.025 mM) | visible growth readout ([1]; 0.05 mM) | visible growth readout ([1]; 0.1 mM) | visible growth readout ([2]; 0.01 mM) | visible growth readout ([2]; 0.025 mM) | visible growth readout ([2]; 0.05 mM) | visible growth readout ([3]; 0.05 mM) | visible growth readout ([3]; 0.1 mM) | visible growth readout (Escherichia coli CFT073; 0.01 mM) | visible growth readout (Escherichia coli CFT073; 0.025 mM) | visible growth readout (Escherichia coli CFT073; 0.05 mM) | visible growth readout ([4]; 0.01 mM) | visible growth readout ([4]; 0.025 mM) | visible growth readout ([5]; 0.05 mM) | visible growth readout ([5]; 0.1 mM) | visible growth readout ([6]; 0.01 mM) | visible growth readout ([6]; 0.025 mM)
100 to 200 µM: MIC ([1]; Staphylococcus aureus, B5381, 24 h) | MIC ([3]; Pseudomonas aeruginosa, PA02, 24 h) | MIC ([5]; Enterococcus faecalis, 24 h)
25 to 50 µM: MIC ([4]; Staphylococcus epidermidis, 24 h) | MIC ([6]; Enterococcus faecium, 24 h)
Clear: visible growth readout (E. coli; PDEA 0.05 mM) | visible growth readout ([1]; 0.2 mM) | visible growth readout ([1]; 0.4 mM) | visible growth readout ([2]; 0.1 mM) | visible growth readout ([3]; 0.2 mM) | visible growth readout ([3]; 0.4 mM) | visible growth readout (Escherichia coli CFT073; 0.1 mM) | visible growth readout ([4]; 0.05 mM) | visible growth readout ([4]; 0.1 mM) | visible growth readout ([5]; 0.2 mM) | visible growth readout ([5]; 0.4 mM) | visible growth readout ([6]; 0.05 mM) | visible growth readout ([6]; 0.1 mM)
